Read-outs that look alike come from different tables or passages of the source.
Assays:
rat L5/L6 SNL model = test: Spinal nerve ligation (SNL) model of neuropathic pain, mechanical allodynia; assay type: in vivo; conditions: two-way repeated measurement ANOVA, FIG. 1
Description: The SNL model (Kim and Chung, 1992, Pain 50(3):355-63) was used to induce chronic neuropathic pain in rats. Rats were anesthetized with isoflurane, the left L5 transverse process was removed, and the L5 and L6 spinal nerves were tightly ligated with 6-0 silk suture. The wound was then closed with internal sutures and external staples. Following at least seven days post SNL, baseline, post-injury and post-treatment values for non-noxious mechanical sensitivity were evaluated using eight Semmes-Weinstein filaments (Stoelting, Wood Dale, Ill., USA) with varying stiffness (0.4, 0.7, 1.2, 2.0, 3.6, 5.5, 8.5, and 15 g) according to the up-down method (Chaplan et al., 1994, J. Neurosci. Meth., 53(1):55-63). Animals were placed on a perforated metallic platform and allowed to acclimate to their surroundings for a minimum of 30 mins before testing.
Rat L5/L6 SNL model (n=6/group; mean±sem). Sensitivity to non-noxious mechanical stimuli was tested before and at various time points following oral administration of compound (36). The mean and standard error of the mean (SEM) were determined for the injured paw in each treatment group. Since this stimulus is normally not considered painful, significant injury-induced increases in responsiveness in this test are interpreted as a measure of mechanical allodynia.

[1] = target: human CB2 receptor (hCB2) (Homo sapiens, UniProt P34972); test: cAMP assay, agonist/inverse agonist activity at human CB2 receptor; assay type: cell-based
Description: (§1) TR-FRET was measured using a 330-380 nm excitation filter, 615 nm and 665 nm emission filters, dichroic mirror 380 nm and Z=10 mm. cAMP concentrations in each well were back-calculated from a cAMP standard curve run concurrently during each assay. Each plate contained 16 wells of forskolin stimulated cells and 16 wells of forskolin plus 1 μM CP55,940-treated cells. Concentrations of cAMP were expressed as a percent of the difference of these two groups of wells.

[2] = target: human CB1 receptor (hCB1) (Homo sapiens, UniProt P21554); test: cAMP assay, agonist/inverse agonist activity at human CB1 receptor; assay type: cell-based; conditions: hCB1R, read-out: EC50 at hCB1R (Potency at Human CB1 determined by cAMP Assay)
Description: The ability of each of the compounds to act as agonists or inverse agonists at human CB2 and CB 1 receptors (hCB2, hCB 1, respectively) and at the rat CB2 receptor (rCB2) was determined by measuring changes in intracellular cyclic AMP (cAMP) levels as described in U.S. Pat. No. 7,517,874.
as §1, with “wells. Concentration-response data including EC50 (the concentration of compound producing 50% of the maximal response) and intrinsic activity (the percent maximal activation compared to full activation by CP55,940) were determined using a four-parameter non-linear regression algorithm (CambridgeSoft Bioassay).” for “wells.”

[3] = hCB2R, cAMP assay, read-out: EC50 at hCB2R (Potency at Human CB2 determined by cAMP Assay)

Chain of human CB1 receptor (hCB1) (P21554 whole entry): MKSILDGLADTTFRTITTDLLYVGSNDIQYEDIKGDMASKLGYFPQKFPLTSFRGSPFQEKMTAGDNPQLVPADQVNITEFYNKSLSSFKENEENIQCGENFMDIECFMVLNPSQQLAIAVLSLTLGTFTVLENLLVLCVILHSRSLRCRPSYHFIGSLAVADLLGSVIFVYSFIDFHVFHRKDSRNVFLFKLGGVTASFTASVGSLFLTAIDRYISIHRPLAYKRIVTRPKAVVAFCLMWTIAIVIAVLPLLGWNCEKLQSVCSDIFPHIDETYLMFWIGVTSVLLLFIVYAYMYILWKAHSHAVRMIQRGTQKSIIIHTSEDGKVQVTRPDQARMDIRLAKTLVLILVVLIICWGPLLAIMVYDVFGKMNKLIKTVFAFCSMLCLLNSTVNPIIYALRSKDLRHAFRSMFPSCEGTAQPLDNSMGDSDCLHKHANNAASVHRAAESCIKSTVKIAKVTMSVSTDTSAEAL
Chain of human CB2 receptor (hCB2) (P34972 whole entry): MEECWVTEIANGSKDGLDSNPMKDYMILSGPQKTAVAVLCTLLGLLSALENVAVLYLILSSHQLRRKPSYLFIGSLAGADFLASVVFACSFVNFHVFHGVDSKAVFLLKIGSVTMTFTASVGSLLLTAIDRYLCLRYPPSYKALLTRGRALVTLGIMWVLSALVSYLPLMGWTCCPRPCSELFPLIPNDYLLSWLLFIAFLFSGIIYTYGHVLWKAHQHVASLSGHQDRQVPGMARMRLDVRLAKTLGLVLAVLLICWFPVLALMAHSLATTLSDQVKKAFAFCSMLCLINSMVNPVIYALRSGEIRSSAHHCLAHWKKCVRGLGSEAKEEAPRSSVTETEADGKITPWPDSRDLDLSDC

Compound | EC50 [1] | EC50 [2] | further results
CC(C)(C)[C@H](NC(=O)n1nc(-c2ccc(F)c(F)c2)c2c1CCOC2)C(=O)NCCO [Compound 36, (S)-N-(1-(2-hydroxyethylamino)-3,3-dimethyl-1-oxobutan-2-yl)-3-(3,4-difluorophenyl)-6,7-dihydropyrano[4,3-c]pyrazole-1(4H)-carboxamide] | – | – | sensitivity to non-noxious mechanical stimuli, significance vs. vehicle-controls (rat L5/L6 SNL model; 3 mg/kg oral): significant to p<0.05 vs. vehicle-controls; sensitivity to non-noxious mechanical stimuli, significance vs. vehicle-controls (rat L5/L6 SNL model; 10 mg/kg oral): significant to p<0.001 vs. vehicle-controls; sensitivity to non-noxious mechanical stimuli, significance vs. vehicle-controls (rat L5/L6 SNL model; 30 mg/kg oral): significant to p<0.001 vs. vehicle-controls
CNC(=O)[C@@H](NC(=O)n1nc(-c2cc(C(F)(F)F)ccc2F)c2c1CCN(C)C2)C(C)(C)C [Compound 59, (S)-N-(3,3-dimethyl-1-(methylamino)-1-oxobutan-2-yl)-3-(2-fluoro-5-(trifluoromethyl)phenyl)-5-methyl-4,5,6,7-tetrahydro-1H-pyrazolo[4,3-c]pyridine-1-carboxamide] | < 1 µM | < 1 µM | –
CC(C)(C)[C@H](NC(=O)n1nc(-c2ccc(F)c(F)c2)c2c1CCOC2)C(=O)NCCC#N [Compound 104, (S)-N-(1-(2-cyanoethylamino)-3,3-dimethyl-1-oxobutan-2-yl)-3-(3,4-difluorophenyl)-6,7-dihydropyrano[4,3-c]pyrazole-1(4H)-carboxamide] | < 1 µM | < 1 µM | –
Cc1cc(NC(=O)[C@@H](NC(=O)n2nc(-c3ccc(F)c(F)c3)c3c2CCOC3)C(C)(C)C)n[nH]1 [Compound 105, (S)-3-(3,4-difluorophenyl)-N-(3,3-dimethyl-1-(5-methyl-1H-pyrazol-3-ylamino)-1-oxobutan-2-yl)-6,7-dihydropyrano[4,3-c]pyrazole-1(4H)-carboxamide] | < 1 µM | < 1 µM | –
Cc1cnc(CNC(=O)[C@@H](NC(=O)n2nc(-c3ccc(F)c(F)c3)c3c2CCOC3)C(C)(C)C)cn1 [Compound 106, (S)-3-(3,4-difluorophenyl)-N-(3,3-dimethyl-1-((5-methylpyrazin-2-yl)methylamino)-1-oxobutan-2-yl)-6,7-dihydropyrano-[4,3-c]pyrazole-1(4H)-carboxamide] | – | < 1 µM | EC50 [1, 3]: < 1 µM
CC(C)(C)[C@H](NC(=O)n1nc(-c2ccc(F)c(F)c2)c2c1CCOC2)C(=O)N1CCN(c2ncccn2)CC1 [Compound 107, (S)-3-(3,4-difluorophenyl)-N-(3,3-dimethyl-1-oxo-1-(4-(pyrimidin-2-yl)piperazin-1-yl)butan-2-yl)-6,7-dihydropyrano[4,3-c]pyrazole-1(4H)-carboxamide] | – | < 1 µM | EC50 [1, 3]: < 1 µM
CC(C)(C)[C@H](NC(=O)n1nc(-c2ccc(F)c(F)c2)c2c1CCOC2)C(=O)N1CCN(c2nccs2)CC1 [Compound 108, (S)-3-(3,4-difluorophenyl)-N-(3,3-dimethyl-1-oxo-1-(4-(thiazol-2-yl)piperazin-1-yl)butan-2-yl)-6,7-dihydropyrano[4,3-c]pyrazole-1(4H)-carboxamide] | < 1 µM | < 1 µM | –
CC(C)(C)[C@H](NC(=O)n1nc(-c2ccc(F)c(F)c2)c2c1CCOC2)C(=O)N1CCC[C@H]1CO [Compound 109, 3-(3,4-difluorophenyl)-N-((S)-1-((S)-2-(hydroxymethyl)pyrrolidin-1-yl)-3,3-dimethyl-1-oxobutan-2-yl)-6,7-dihydropyrano[4,3-c]pyrazole-1(4H)-carboxamide] | < 1 µM | < 1 µM | –
CC(C)(C)[C@H](NC(=O)n1nc(-c2ccc(F)c(F)c2)c2c1CCOC2)C(=O)N1CCS(=O)(=O)CC1 [Compound 110, (S)-3-(3,4-difluorophenyl)-N-(3,3-dimethyl-1-oxo-1-thiomorpholinodioxide-butan-2-yl)-6,7-dihydropyrano[4,3-c]pyrazole-1(4H)-carboxamide] | – | < 1 µM | EC50 [1, 3]: > 1 µM
CC(C)(C)[C@H](NC(=O)n1nc(-c2ccc(F)c(F)c2)c2c1CCOC2)C(=O)N1CCNC(=O)C1 [Compound 111, (S)-3-(3,4-difluorophenyl)-N-(3,3-dimethyl-1-oxo-1-(3-oxopiperazin-1-yl)butan-2-yl)-6,7-dihydropyrano[4,3-c]pyrazole-1(4H)-carboxamide] | < 1 µM | < 1 µM | –
CN(C)S(=O)(=O)N1CCN(C(=O)[C@@H](NC(=O)n2nc(-c3ccc(F)c(F)c3)c3c2CCOC3)C(C)(C)C)CC1 [Compound 112, (S)-3-(3,4-difluorophenyl)-N-(1-(4-(N,N-dimethylsulfamoyl)piperazin-1-yl)-3,3-dimethyl-1-oxobutan-2-yl)-6,7-dihydropyrano-[4,3-c]pyrazole-1(4H)-carboxamide] | – | < 1 µM | EC50 [1, 3]: > 1 µM
Cc1nnc(CNC(=O)[C@@H](NC(=O)n2nc(-c3ccc(F)c(F)c3)c3c2CCOC3)C(C)(C)C)o1 [Compound 113, (S)-3-(3,4-difluorophenyl)-N-(3,3-dimethyl-1-((5-methyl-1,3,4-oxadiazol-2-yl)methylamino)-1-oxobutan-2-yl)-6,7-dihydropyrano[4,3-c]pyrazole-1(4H)-carboxamide] | < 1 µM | < 1 µM | –
CC(C)(C)[C@H](NC(=O)c1nn(-c2ccc(Cl)cc2F)c2c1COCC2)C(=O)NCCO [Compound 117, (S)-1-(4-chloro-2-fluorophenyl)-N-(1-(2-hydroxyethylamino)-3,3-dimethyl-1-oxobutan-2-yl)-1,4,6,7-tetrahydropyrano[4,3-c]pyrazole-3-carboxamide] | < 1 µM | < 1 µM | –
CC(C)(C)[C@H](NC(=O)c1nn(-c2ccc(Cl)cc2F)c2c1CCOC2)C(=O)NCCO [Compound 118, (S)-1-(4-chloro-2-fluorophenyl)-N-(1-(2-hydroxyethylamino)-3,3-dimethyl-1-oxobutan-2-yl)-1,4,5,7-tetrahydropyrano[3,4-c]pyrazole-3-carboxamide] | < 1 µM | < 1 µM | –
CC(C)(C)[C@H](NC(=O)c1nn(-c2cc(Cl)ccc2F)c2c1COCC2)C(=O)NCCO [Compound 119, (S)-1-(5-chloro-2-fluorophenyl)-N-(1-(2-hydroxyethylamino)-3,3-dimethyl-1-oxobutan-2-yl)-1,4,6,7-tetrahydropyrano[4,3-c]pyrazole-3-carboxamide] | < 1 µM | < 1 µM | –
CNC(=O)[C@@H](NC(=O)c1nn(-c2ccc(F)c(F)c2)c2c1CN(C)CCC2)C(C)(C)C [Compound 120, (S)-1-(3,4-difluorophenyl)-N-(3,3-dimethyl-1-(methylamino)-1-oxobutan-2-yl)-5-methyl-1,4,5,6,7,8-hexahydropyrazolo[4,3-c]azepine-3-carboxamide] | < 1 µM | < 1 µM | –
CC(C)(C)[C@H](NC(=O)c1nn(-c2cc(Cl)ccc2F)c2c1COCC2)C(=O)N1CCNC(=O)C1 [Compound 121, (S)-1-(5-chloro-2-fluorophenyl)-N-(3,3-dimethyl-1-oxo-1-(3-oxopiperazin-1-yl)butan-2-yl)-1,4,6,7-tetrahydropyrano[4,3-c]pyrazole-3-carboxamide] | – | < 1 µM | hCBR2 activity ([1]; cAMP assay): no detectable hCBR2 activity
CC(C)(C)C(NC(=O)c1nn(-c2cc(Cl)ccc2F)c2c1COCC2)C(=O)N1CCC[C@H]1CO (stereo partly drawn) [Compound 122] | < 1 µM | < 1 µM | –
Cc1nnc(CNC(=O)[C@@H](NC(=O)c2nn(-c3cc(Cl)ccc3F)c3c2COCC3)C(C)(C)C)o1 [Compound 123] | – | < 1 µM | hCBR2 activity ([1]; cAMP assay): no detectable hCBR2 activity

From patent publication US8653127B2, “Bicyclic pyrazolo-heterocycles” (Cara Therapeutics, Inc., priority 2009, dated 2014)
